Legend:
[1] = molecular target: 5-hydroxytryptamine receptor 4 (Cavia porcellus, UniProt O70528); format: cell membranes, Dunkin-Hartley, Striatum, Membrane; note: in other assays of this panel Not Active means under 50% inhibition at 10 µM
[2] = molecular target: Protein phosphatase 3 catalytic subunit alpha (Homo sapiens, UniProt Q08209); parameters: species or system Escherichia coli;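 note: inhibition of calcineurin (PP2B) enzyme activity, measured with DiFMUP as the substrate; in other assays of this panel Not Active means under 50% inhibition at 10 µM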
[3] = DRUGMATRIX: Glutamate, Kainate radioligand binding (ligand: [3H] Kainic acid); format: cell membranes, Rattus norvegicus, Wistar, Brain, Membrane; settings: Not Active = under 50% inhibition at 10 µM
[4] = molecular target: Receptor tyrosine-protein kinase erbB-2 (Homo sapiens, UniProt P04626); assay: biochemical; format: cell-based, Insect cells;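 note: inhibition of HER2 kinase enzyme activity, measured with Poly(Glu:Tyr) as the phosphorylation substrate; in other assays of this panel Not Active means under 50% inhibition at 10 µM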
[5] = molecular target: T1, Muscarinic acetylcholine receptor M2 (Homo sapiens, UniProt P08172); format: cell membranes, CHO-K1, Membrane; settings: cho-k1; note: in other assays of this panel Not Active means under 50% inhibition at 10 µM
T1 sequence (P08172 whole entry): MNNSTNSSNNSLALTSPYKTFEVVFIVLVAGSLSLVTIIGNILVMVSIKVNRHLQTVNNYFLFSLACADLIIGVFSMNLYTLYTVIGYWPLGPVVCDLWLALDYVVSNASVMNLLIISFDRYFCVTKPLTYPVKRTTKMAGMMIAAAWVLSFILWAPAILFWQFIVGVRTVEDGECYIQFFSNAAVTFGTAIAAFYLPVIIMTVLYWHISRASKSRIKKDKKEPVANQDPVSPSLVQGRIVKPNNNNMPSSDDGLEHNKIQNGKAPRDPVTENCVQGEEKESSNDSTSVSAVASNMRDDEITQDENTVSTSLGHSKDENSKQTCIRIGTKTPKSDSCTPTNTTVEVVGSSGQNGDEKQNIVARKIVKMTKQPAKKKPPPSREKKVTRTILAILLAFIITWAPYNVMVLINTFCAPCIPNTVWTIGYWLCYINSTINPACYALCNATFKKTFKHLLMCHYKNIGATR

[6] = DRUGMATRIX: Calcium Channel Type L, Benzothiazepine radioligand binding (ligand: [3H] Diltiazem); format: cell membranes, Rattus norvegicus, Wistar, Brain, Membrane; settings: Not Active = under 50% inhibition at 10 µM
[7] = molecular target: T2, Cysteinyl leukotriene receptor 1 (Homo sapiens, UniProt Q9Y271); format: cell membranes, CHO-K1, Membrane; settings: cho-k1; note: in other assays of this panel Not Active means under 50% inhibition at 10 µM
T2 sequence (Q9Y271 whole entry): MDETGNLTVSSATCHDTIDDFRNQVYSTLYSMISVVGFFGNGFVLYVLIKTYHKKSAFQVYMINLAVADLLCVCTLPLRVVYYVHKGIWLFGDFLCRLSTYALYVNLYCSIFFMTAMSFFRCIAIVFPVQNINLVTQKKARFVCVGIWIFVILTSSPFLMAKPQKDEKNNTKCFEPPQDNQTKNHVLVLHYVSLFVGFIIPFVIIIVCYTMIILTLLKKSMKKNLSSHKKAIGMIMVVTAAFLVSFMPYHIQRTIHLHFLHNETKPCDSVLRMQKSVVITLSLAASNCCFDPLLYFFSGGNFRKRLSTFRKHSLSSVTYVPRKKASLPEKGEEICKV

[8] = molecular target: Beta-1 adrenergic receptor (Homo sapiens, UniProt P08588); assay: DRUGMATRIX: Adrenergic beta1 radioligand binding (ligand: [125I] Cyanopindolol); format: cell membranes, CHO-K1, Membrane; settings: cho-k1; Not Active = under 50% inhibition at 10 µM
Substance-K receptor = molecular target: T3, Substance-K receptor (Homo sapiens, UniProt P21452); format: cell membranes, CHO, Membrane; note: in other assays of this panel Not Active means under 50% inhibition at 10 µM
T3 sequence (P21452 whole entry): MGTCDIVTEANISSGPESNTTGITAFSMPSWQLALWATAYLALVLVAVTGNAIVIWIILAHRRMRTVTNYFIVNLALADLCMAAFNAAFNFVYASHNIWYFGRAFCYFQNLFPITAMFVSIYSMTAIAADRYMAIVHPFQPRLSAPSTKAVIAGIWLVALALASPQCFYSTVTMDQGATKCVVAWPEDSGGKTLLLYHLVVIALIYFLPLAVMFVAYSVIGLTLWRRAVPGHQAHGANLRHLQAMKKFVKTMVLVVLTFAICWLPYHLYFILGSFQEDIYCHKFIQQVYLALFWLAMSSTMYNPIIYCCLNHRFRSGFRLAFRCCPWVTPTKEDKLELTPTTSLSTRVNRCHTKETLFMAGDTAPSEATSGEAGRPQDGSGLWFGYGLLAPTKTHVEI

Receptor tyrosine-protein kinase erbB-2, sequence (P04626 whole entry): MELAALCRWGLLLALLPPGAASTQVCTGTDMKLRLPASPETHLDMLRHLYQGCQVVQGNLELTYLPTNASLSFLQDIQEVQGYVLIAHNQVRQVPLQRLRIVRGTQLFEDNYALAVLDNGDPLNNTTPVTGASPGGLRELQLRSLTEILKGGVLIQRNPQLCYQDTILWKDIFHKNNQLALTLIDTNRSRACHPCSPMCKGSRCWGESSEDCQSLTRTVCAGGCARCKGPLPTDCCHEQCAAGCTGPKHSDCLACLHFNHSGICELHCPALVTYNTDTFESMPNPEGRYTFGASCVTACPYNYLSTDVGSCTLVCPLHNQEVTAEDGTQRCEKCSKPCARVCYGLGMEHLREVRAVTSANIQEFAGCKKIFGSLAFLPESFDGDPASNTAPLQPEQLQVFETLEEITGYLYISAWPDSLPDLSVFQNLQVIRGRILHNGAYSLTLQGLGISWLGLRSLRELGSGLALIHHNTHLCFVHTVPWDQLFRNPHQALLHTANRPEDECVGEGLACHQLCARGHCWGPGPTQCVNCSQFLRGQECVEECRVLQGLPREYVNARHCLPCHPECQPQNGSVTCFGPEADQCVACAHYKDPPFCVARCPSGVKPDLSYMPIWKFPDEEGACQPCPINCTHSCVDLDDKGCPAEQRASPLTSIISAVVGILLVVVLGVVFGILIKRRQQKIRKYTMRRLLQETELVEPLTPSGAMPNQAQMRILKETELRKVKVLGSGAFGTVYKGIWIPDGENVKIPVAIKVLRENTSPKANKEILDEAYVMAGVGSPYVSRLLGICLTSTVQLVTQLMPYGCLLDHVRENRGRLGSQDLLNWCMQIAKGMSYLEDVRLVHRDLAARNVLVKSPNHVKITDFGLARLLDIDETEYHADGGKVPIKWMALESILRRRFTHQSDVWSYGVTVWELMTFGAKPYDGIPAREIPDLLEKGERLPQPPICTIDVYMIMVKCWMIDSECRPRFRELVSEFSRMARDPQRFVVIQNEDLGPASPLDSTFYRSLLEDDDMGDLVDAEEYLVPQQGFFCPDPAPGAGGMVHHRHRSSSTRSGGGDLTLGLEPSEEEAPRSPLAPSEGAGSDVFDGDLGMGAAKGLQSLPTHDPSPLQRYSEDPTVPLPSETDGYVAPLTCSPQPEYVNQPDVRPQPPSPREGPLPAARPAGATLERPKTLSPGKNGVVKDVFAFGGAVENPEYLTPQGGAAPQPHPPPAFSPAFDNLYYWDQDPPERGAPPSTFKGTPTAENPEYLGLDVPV
5-hydroxytryptamine receptor 4, sequence (O70528 whole entry): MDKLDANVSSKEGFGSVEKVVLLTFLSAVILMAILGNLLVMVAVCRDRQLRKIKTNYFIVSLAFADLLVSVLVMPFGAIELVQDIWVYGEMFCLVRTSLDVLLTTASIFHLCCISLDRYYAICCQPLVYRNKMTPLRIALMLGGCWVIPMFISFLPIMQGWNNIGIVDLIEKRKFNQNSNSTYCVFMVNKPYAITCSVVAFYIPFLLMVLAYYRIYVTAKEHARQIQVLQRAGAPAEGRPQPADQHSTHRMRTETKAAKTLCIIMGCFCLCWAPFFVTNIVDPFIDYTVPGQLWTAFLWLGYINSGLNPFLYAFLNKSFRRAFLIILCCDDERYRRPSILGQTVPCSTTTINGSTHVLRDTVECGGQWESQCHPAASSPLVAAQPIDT
Beta-1 adrenergic receptor, sequence (P08588 whole entry): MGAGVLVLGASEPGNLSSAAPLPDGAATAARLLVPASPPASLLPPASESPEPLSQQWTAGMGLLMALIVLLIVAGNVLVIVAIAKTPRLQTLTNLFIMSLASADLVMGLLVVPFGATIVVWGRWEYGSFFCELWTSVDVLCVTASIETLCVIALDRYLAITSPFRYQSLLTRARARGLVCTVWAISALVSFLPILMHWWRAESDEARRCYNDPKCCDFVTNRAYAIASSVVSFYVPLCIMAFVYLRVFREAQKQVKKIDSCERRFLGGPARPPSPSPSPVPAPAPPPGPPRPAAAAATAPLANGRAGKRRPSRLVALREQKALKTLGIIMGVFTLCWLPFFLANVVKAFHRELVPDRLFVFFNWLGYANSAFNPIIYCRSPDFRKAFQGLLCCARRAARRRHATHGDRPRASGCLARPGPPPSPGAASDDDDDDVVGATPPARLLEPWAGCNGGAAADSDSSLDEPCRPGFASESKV

Row | Compound | IC50 [1] | IC50 [2] | IC50 [3] | Ki [3] | IC50 ([4]; insect cells) | IC50 [5] | IC50 [6] | Ki [6] | IC50 [7] | IC50 [8] | IC50 (Substance-K receptor; cho) | IC50 ([4]; read-out: IC50) [nM] | IC50 (Substance-K receptor; read-out: IC50) [µM] | Ki (Substance-K receptor; read-out: Ki) [nM] | IC50 ([6]; read-out: IC50) [nM] | Ki ([6]; read-out: Ki) [nM]
1 | CC1COc2c(N3CCN(C)CC3)c(F)cc3c(=O)c(C(=O)O)cn1c23 (configuration not stated) [OFLOXACIN] | Not Active | Not Active | Not Active | Not Active | Not Active | Not Active | Not Active | Not Active | Not Active | Not Active | Not Active | – | – | – | – | –
2 | CC(C)(S)[C@@H](N)C(=O)O [PENICILLAMINE] | Not Active | Not Active | Not Active | Not Active | Not Active | Not Active | Not Active | Not Active | Not Active | Not Active | Not Active | – | – | – | – | –
3 | CC(=O)CCCCn1c(=O)c2c(ncn2C)n(C)c1=O [PENTOXIFYLLINE] | Not Active | Not Active | Not Active | Not Active | Not Active | Not Active | Not Active | Not Active | Not Active | Not Active | Not Active | – | – | – | – | –
4 | Nc1nc(=O)[nH]cc1F [FLUCYTOSINE] | Not Active | Not Active | Not Active | Not Active | Not Active | Not Active | Not Active | Not Active | Not Active | Not Active | Not Active | – | – | – | – | –
5 | CCC1(c2ccccc2)C(=O)NCNC1=O [PRIMIDONE] | Not Active | Not Active | Not Active | Not Active | Not Active | Not Active | Not Active | Not Active | Not Active | Not Active | Not Active | – | – | – | – | –
6 | CCCCOC(=O)c1ccc(N)cc1 [BUTAMBEN] | Not Active | Not Active | Not Active | Not Active | Not Active | Not Active | Not Active | Not Active | Not Active | Not Active | Not Active | – | – | – | – | –
7 | CC1(C)[C@@H](O[C@H]2O[C@H](C(=O)O)[C@@H](O)[C@H](O)[C@H]2O[C@@H]2O[C@H](C(=O)O)[C@@H](O)[C@H](O)[C@H]2O)CC[C@]2(C)[C@H]3C(=O)C=C4[C@@H]5C[C@@](C)(C(=O)O)CC[C@]5(C)CC[C@@]4(C)[C@]3(C)CC[C@@H]12 [GLYCYRRHIZIN] | Not Active | Not Active | Not Active | Not Active | Not Active | Not Active | Not Active | Not Active | Not Active | Not Active | Not Active | – | – | – | – | –
8 | Cn1cnc([N+](=O)[O-])c1Sc1ncnc2nc[nH]c12 [AZATHIOPRINE] | Not Active | Not Active | Not Active | Not Active | Not Active | Not Active | Not Active | Not Active | Not Active | Not Active | Not Active | – | – | – | – | –
9 | CC(C)n1c(/C=C/C(O)CC(O)CC(=O)O)c(-c2ccc(F)cc2)c2ccccc21 (configuration not stated) [FLUVASTATIN] | Not Active | Not Active | Not Active | Not Active | Not Active | Not Active | Not Active | Not Active | Not Active | Not Active | Not Active | – | – | – | – | –
10 | Oc1c(Cl)cc(Cl)cc1Sc1cc(Cl)cc(Cl)c1O [BITHIONOL] | Not Active | Not Active | Not Active | Not Active | – | Not Active | Not Active | Not Active | Not Active | Not Active | – | 2150 | 4.66 | 1550 | – | –
11 | COc1ccc([C@@H]2Sc3ccccc3N(CCN(C)C)C(=O)[C@@H]2OC(C)=O)cc1 [DILTIAZEM] | Not Active | Not Active | Not Active | Not Active | Not Active | Not Active | – | – | Not Active | Not Active | Not Active | – | – | – | 28 | 25
12 | CC(C)(Oc1ccc(CCNC(=O)c2ccc(Cl)cc2)cc1)C(=O)O [BEZAFIBRATE] | Not Active | Not Active | Not Active | Not Active | Not Active | Not Active | Not Active | Not Active | Not Active | Not Active | Not Active | – | – | – | – | –
13 | CCCSc1ccc2nc(NC(=O)OC)[nH]c2c1 [ALBENDAZOLE] | Not Active | Not Active | Not Active | Not Active | Not Active | Not Active | Not Active | Not Active | Not Active | Not Active | Not Active | – | – | – | – | –
14 | CN1C(C(=O)Nc2ccccn2)=C(O)c2ccccc2S1(=O)=O [PIROXICAM] | Not Active | Not Active | Not Active | Not Active | Not Active | Not Active | Not Active | Not Active | Not Active | Not Active | Not Active | – | – | – | – | –
15 | COc1c(N2CCNC(C)C2)c(F)cc2c(=O)c(C(=O)O)cn(C3CC3)c12 (configuration not stated) [GATIFLOXACIN] | Not Active | Not Active | Not Active | Not Active | Not Active | Not Active | Not Active | Not Active | Not Active | Not Active | Not Active | – | – | – | – | –
16 | CC(/C=C1\SC(=S)N(CC(=O)O)C1=O)=C\c1ccccc1 | Not Active | Not Active | Not Active | Not Active | Not Active | Not Active | Not Active | Not Active | Not Active | Not Active | Not Active | – | – | – | – | –
